Experimental data reported in ChEMBL document CHEMBL6074689 (Eur J Med Chem, 2025).
Activity calls are given as the source filed them. The rule behind the calls is not given here.

How the values were obtained:
[1] = Antioxidant activity assessed as DPPH radical scavenging activity incubated for 30 mins; format: functional
[2] = Antioxidant activity assessed as DPPH radical scavenging activity at 200 uM incubated for 30 mins relative to control; format: functional
[3] = target: T1, Acetylcholinesterase (Homo sapiens, UniProt P22303); assay: Inhibition of human recombinant AChE expressed in HEK293 cells using acetylthiocholine iodide as substrate preincubated with compound for 30 mins followed by substrate addition and measured after 30 mins by DTNB reagent based Ellman's method
T1 sequence (P22303 whole entry): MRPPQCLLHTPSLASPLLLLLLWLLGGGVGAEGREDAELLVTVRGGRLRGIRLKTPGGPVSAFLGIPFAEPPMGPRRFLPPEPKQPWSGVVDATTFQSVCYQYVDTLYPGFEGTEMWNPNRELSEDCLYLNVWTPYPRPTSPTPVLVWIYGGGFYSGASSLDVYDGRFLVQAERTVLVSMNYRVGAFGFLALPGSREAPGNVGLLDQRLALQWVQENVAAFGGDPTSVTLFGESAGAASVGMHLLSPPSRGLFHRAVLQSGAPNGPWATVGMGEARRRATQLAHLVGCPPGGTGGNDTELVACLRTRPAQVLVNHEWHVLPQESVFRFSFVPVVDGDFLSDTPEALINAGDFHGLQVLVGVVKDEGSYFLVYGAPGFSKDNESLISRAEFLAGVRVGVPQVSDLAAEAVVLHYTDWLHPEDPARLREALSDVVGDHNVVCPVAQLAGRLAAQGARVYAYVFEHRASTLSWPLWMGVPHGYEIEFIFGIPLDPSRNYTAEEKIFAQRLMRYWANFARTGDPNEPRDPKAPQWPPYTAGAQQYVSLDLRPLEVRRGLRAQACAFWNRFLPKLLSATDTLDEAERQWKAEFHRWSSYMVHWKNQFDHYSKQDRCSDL

[4] = target: Cholinesterase (Equus caballus, UniProt P81908); assay: Inhibition of equine serum BChE using acetylthiocholine iodide as substrate preincubated with compound for 30 mins followed by substrate addition and measured after 30 mins by DTNB reagent based Ellman's method
Sequence of Cholinesterase (P81908 whole entry): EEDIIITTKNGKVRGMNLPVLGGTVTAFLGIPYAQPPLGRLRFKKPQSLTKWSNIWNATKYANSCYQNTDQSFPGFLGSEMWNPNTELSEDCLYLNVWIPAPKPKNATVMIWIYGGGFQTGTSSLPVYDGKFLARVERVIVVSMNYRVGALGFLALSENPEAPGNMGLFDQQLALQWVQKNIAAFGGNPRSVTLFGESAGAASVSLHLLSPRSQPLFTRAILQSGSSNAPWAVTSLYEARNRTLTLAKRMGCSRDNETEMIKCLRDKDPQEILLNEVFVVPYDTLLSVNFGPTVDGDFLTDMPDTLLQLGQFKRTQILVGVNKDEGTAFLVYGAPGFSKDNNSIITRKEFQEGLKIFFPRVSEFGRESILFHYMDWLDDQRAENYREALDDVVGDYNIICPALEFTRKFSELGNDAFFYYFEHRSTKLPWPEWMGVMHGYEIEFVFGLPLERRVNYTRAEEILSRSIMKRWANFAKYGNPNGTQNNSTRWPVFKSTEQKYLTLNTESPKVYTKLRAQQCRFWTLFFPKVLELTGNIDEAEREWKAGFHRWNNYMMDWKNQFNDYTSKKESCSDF

[5] = test system: Mus musculus; assay: (§1) Antialzheimer activity in scopolamine-induced Swiss albino mouse model assessed as decrease in escape latency at 0.3 to 0.5 mg/kg, po preincubated with compound for 30 mins followed by scopolamine induction and measured after 5 days by Morris water maze test; format: functional, organism-based; conditions: dose 0.3-0.5 mg/kg, time 7230.0 min
[6] = target: Amyloid-beta precursor protein (Homo sapiens) (UniProt P05067); assay: Inhibition of amyloid beta (1 to 42) (unknown origin) self induced aggregation at 1.521 uM incubated for 72 hrs by transmission electron microscopic analysis
Sequence of Amyloid-beta precursor protein (Homo sapiens) (P05067 whole entry): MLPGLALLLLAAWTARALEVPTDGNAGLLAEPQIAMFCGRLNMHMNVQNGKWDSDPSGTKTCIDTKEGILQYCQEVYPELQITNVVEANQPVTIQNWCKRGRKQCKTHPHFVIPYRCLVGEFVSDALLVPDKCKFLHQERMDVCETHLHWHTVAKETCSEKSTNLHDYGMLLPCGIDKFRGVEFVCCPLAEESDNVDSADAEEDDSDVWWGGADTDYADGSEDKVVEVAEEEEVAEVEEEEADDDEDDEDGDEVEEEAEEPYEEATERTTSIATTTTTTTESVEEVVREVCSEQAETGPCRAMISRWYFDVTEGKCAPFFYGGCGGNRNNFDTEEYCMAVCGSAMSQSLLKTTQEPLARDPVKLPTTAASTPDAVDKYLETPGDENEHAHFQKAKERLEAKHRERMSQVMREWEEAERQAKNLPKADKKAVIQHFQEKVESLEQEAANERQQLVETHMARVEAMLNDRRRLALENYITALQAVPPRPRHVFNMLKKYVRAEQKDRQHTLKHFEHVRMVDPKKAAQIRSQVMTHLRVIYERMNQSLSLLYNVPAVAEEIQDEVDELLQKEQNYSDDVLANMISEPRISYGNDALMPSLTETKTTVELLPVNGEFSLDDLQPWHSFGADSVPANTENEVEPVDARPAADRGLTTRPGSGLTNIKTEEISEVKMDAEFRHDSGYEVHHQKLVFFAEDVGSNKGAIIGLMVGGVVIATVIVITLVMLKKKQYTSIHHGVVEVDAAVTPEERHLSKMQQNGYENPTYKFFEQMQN

[7] = Metal chelating activity assessed as compound-Fe2+ complex formation by measuring increase in absorption intensity at 300 uM in presence of by UV-vis spectrometry
[8] = test system: Mus musculus; assay: Antioxidant activity against scopolamine-induced Swiss albino mouse model assessed as increase in catalase level in brain at 0.3 to 0.5 mg/kg, po by absorbance based analysis; format: functional, organism-based; conditions: dose 0.3-0.5 mg/kg
[9] = Acute toxicity in Swiss albino mouse assessed as convulsion at 175 mg/kg, po administered for 14 days; format: organism-based; conditions: in vivo, 336 h, time 14 day
[10] = test system: Mus musculus; assay: Neuroprotective activity against scopolamine-induced Swiss albino mouse model assessed as upregulation of PKA mRNA level at 0.3 to 0.5 mg/kg, po measured after 6 days by RT-PCR analysis; format: functional, organism-based; conditions: dose 0.3-0.5 mg/kg, time 6.0 day
[11] = test system: Mus musculus; assay: Antialzheimer activity in scopolamine-induced Swiss albino mouse model assessed as reduction in AChE level at 0.3 to 0.5 mg/kg, po preincubated with compound for 30 mins followed by scopolamine induction and measured after 30 mins; format: functional, organism-based; conditions: dose 0.3-0.5 mg/kg, time 1.0 hrs
[12] = test system: Mus musculus; assay: Neuroprotective activity against scopolamine-induced Swiss albino mouse model assessed as upregulation of MMP9 mRNA level at 0.3 to 0.5 mg/kg, po measured after 6 days by RT-PCR analysis; format: functional, organism-based; conditions: dose 0.3-0.5 mg/kg, time 6.0 day
[13] = Permeability of the compound across blood brain barrier; format: ADME; conditions: read-out: BBB
[14] = test system: Mus musculus; assay: as §1, with “improvement” for “decrease”, “memory retention by measuring time spent in platform quadrant” for “escape latency”; format: functional, organism-based; conditions: dose 0.3-0.5 mg/kg, time 7230.0 min
[15] = test system: Mus musculus; assay: Antioxidant activity against scopolamine-induced Swiss albino mouse model assessed as increase in MDA level at 0.3 to 0.5 mg/kg, po by absorbance based analysis; format: functional, organism-based; conditions: dose 0.3-0.5 mg/kg
[16] = test system: PC-12; assay: Cytotoxicity against rat PC-12 cells assessed as cell viability upto 20 uM measured for 24 hrs by MTT assay; format: toxicity, cell-based; conditions: pc-12, 24 h
[17] = target: Amyloid-beta precursor protein (Homo sapiens) (UniProt P05067); assay: Inhibition of amyloid beta (1 to 42) (unknown origin) self induced aggregation at 1.521 uM incubated for 72 hrs by ThT fluorescence based assay
[18] = test system: PC-12; assay: Induction of apoptosis in rat PC-12 cells assessed as viable cells at 2.5 uM incubated for 24 hrs by Annexin V/PI staining based flow cytometry analysis (reference value: 82.8%); format: functional; conditions: read-out: Activity
[19] = test system: Drosophila melanogaster; assay: Anti-alzheimer activity in ey-GAL4 driven UAS-amyloid beta (1 to 42) induced Drosophila melanogaster Oregon R-positive assessed as fold increase in superoxide level at 10 uM by fluorescence based analysis; format: functional
[20] = Acute toxicity in Swiss albino mouse assessed as abnormal behavior at 175 mg/kg, po administered for 14 days; format: organism-based; conditions: in vivo, 336 h, time 14 day
[21] = test system: PC-12; assay: Neuroprotective activity against H2O2-induced oxidative stress in rat PC-12 cells assessed as cell viability at 1 to 20 uM preincubated with compound for 24 hrs and followed by H2O2 induction and measured after 24 hrs by MTT assay; format: functional, cell-based; conditions: dose 1-20 µM, time 48.0 hrs
[22] = test system: Mus musculus; assay: Neuroprotective activity against scopolamine-induced Swiss albino mouse model assessed as effect on GAP43 mRNA level at 0.3 to 0.5 mg/kg, po measured after 6 days by RT-PCR analysis; format: functional, organism-based; conditions: dose 0.3-0.5 mg/kg, time 6.0 day
[23] = test system: Mus musculus; assay: Antioxidant activity against scopolamine-induced Swiss albino mouse model assessed as increase in SOD level at 0.3 to 0.5 mg/kg, po by absorbance based analysis; format: functional, organism-based; conditions: dose 0.3-0.5 mg/kg
[24] = target: T1, Acetylcholinesterase; assay: Displacement of propidium iodide from human AChE PAS assessed as reduction in fluorescence intensity at 0.01 uM incubated for 6 hrs by fluorescence based analysis relative to control; parameters: scale not given: the % may be the effect or the level left
[25] = Acute toxicity in Swiss albino mouse assessed as tremor at 175 mg/kg, po administered for 14 days; format: organism-based; conditions: in vivo, 336 h, time 14 day
[26] = test system: PC-12; assay: Induction of apoptosis in rat PC-12 cells assessed as viable cells at 5 uM incubated for 24 hrs by Annexin V/PI staining based flow cytometry analysis (reference value: 82.8%); format: functional; conditions: read-out: Activity
[27] = test system: Mus musculus; assay: Neuroprotective activity against scopolamine-induced Swiss albino mouse model assessed as effect on PSD95 mRNA level at 0.3 to 0.5 mg/kg, po measured after 6 days by RT-PCR analysis; format: functional, organism-based; conditions: dose 0.3-0.5 mg/kg, time 6.0 day
[28] = Metal chelating activity assessed as compound-Cu2+ complex formation by measuring increase in absorption intensity at 300 uM in presence of by UV-vis spectrometry
[29] = test system: Drosophila melanogaster; assay: Inhibition of oxidative stress in y-GAL4 driven UAS-amyloid beta (1 to 42) induced Drosophila melanogaster Oregon R-positive assessed as fold increase in ROS level at 10 to 20 uM incubated for 30 mins by H2DCFDA staining based analysis; format: functional; conditions: dose 10-20 µM, 0.5 h
[30] = test system: Mus musculus; assay: Neuroprotective activity against scopolamine-induced Swiss albino mouse model assessed as increase in NR4A2 mRNA level at 0.3 to 0.5 mg/kg, po measured after 6 days by RT-PCR analysis; format: functional, organism-based; conditions: dose 0.3-0.5 mg/kg, time 6.0 day
[31] = target: T1, Acetylcholinesterase; assay: Displacement of propidium iodide from human AChE PAS assessed as reduction in fluorescence intensity at 5 uM incubated for 6 hrs by fluorescence based analysis relative to control; parameters: scale not given: the % may be the effect or the level left
[32] = Toxicity in Drosophila melanogaster Oregon R-positive assessed as reduction in eclosed flies at 40 uM measured for 15 days relative to control; parameters: scale not given: the % may be the effect or the level left; conditions: 360 h, time 15 day
[33] = test system: Mus musculus; assay: Neuroprotective activity against scopolamine-induced Swiss albino mouse model assessed as increase in C-FOS mRNA level at 0.3 to 0.5 mg/kg, po measured after 6 days by RT-PCR analysis; format: functional, organism-based; conditions: dose 0.3-0.5 mg/kg, time 6.0 day
[34] = Acute toxicity in Swiss albino mouse assessed as animal survival at 175 mg/kg, po administered for 14 days; format: organism-based; conditions: in vivo, 336 h, time 14 day
[35] = test system: Mus musculus; assay: Antialzheimer activity in scopolamine-induced Swiss albino mouse model assessed as reduction in BChE level at 0.3 to 0.5 mg/kg, po preincubated with compound for 30 mins followed by scopolamine induction and measured after 30 mins; format: functional, organism-based; conditions: dose 0.3-0.5 mg/kg, time 1.0 hrs
[36] = test system: PC-12; assay: Induction of apoptosis in rat PC-12 cells assessed as viable cells at 20 uM incubated for 24 hrs by Annexin V/PI staining based flow cytometry analysis (reference value: 82.8%); format: functional; conditions: read-out: Activity
[37] = test system: Mus musculus; assay: Neuroprotective activity against scopolamine-induced Swiss albino mouse model assessed as increase in CREB1 mRNA level at 0.3 to 0.5 mg/kg, po measured after 6 days by RT-PCR analysis; format: functional, organism-based; conditions: dose 0.3-0.5 mg/kg, time 6.0 day
[38] = target: T1, Acetylcholinesterase; assay: Displacement of propidium iodide from human AChE PAS assessed as reduction in fluorescence intensity at 1 uM incubated for 6 hrs by fluorescence based analysis relative to control; parameters: scale not given: the % may be the effect or the level left
[39] = Acute toxicity in Swiss albino mouse assessed as body weight gain at 175 mg/kg, po administered for 14 days; format: organism-based; conditions: in vivo, 336 h, time 14 day
[40] = target: T1, Acetylcholinesterase; assay: Displacement of propidium iodide from human AChE PAS assessed as reduction in fluorescence intensity at 0.1 uM incubated for 6 hrs by fluorescence based analysis relative to control; parameters: scale not given: the % may be the effect or the level left
[41] = test system: PC-12; assay: Induction of apoptosis in rat PC-12 cells assessed as viable cells at 10 uM incubated for 24 hrs by Annexin V/PI staining based flow cytometry analysis (reference value: 82.8%); format: functional; conditions: read-out: Activity

## O=C1O[C@H]([C@@H](O)CO)C(O)=C1O [ASCORBIC ACID]
[1]
  IC50: 3510 nM

## CC(c1cccc(OC(=O)NCCc2c[nH]c3ccc(Cl)cc23)c1)N(C)C (stereo unspecified)
[2]
  Activity: 33.3%
[3]
  IC50: 13.8 nM
[4]
  IC50: 2.14 nM

## C[C@@H](c1cccc(OC(=O)NCCc2c[nH]c3ccccc23)c1)N(C)C
[3]
  IC50: 22.2 nM
[4]
  IC50: 11.1 nM

## Cc1ccc2[nH]cc(CCNC(=O)Oc3cccc([C@H](C)N(C)C)c3)c2c1
[3]
  IC50: 54.7 nM
[4]
  IC50: 26.5 nM

## C[C@@H](c1cccc(OC(=O)NCCc2c[nH]c3ccc(O)cc23)c1)N(C)C
[5]
  Activity: Active
[6]
  inhibition: Active
[7]
  Activity: inactive
[8]
  Activity: Active
[9]
  Activity: Non-toxic
[10]
  Activity: Active
[11]
  Activity: Active
[12]
  Activity: Active
[13]
  Papp: 11.5 ×10⁻⁶ cm/s
[14]
  Activity: Active
[15]
  Activity: Active
[16]
  Activity: Non-toxic
[17]
  inhibition: 100%
[18]
  viability at 2.5 µM: 65.9%
[19]
  fold change (FC): 1.25
[20]
  Activity: Non-toxic
[21]
  Activity: Active
[3]
  IC50: 0.99 nM
[4]
  IC50: 27.8 nM
[22]
  Activity: Active
[23]
  Activity: Active
[24]
  Activity: 3.54%
[25]
  Activity: Non-toxic
[26]
  viability at 5 µM: 71.3%
[27]
  Activity: Active
[28]
  Activity: inactive
[29]
  fold change (FC): 1.8
[1]
  IC50: 22900 nM
[30]
  Activity: Active
[31]
  Activity: 26.2%
[32]
  Activity: 9%
[33]
  Activity: Active
[34]
  Activity: Non-toxic
[35]
  Activity: Active
[36]
  viability at 20 µM: 80.7%
[37]
  Activity: Active
[38]
  Activity: 18.3%
[39]
  Activity: Non-toxic
[40]
  Activity: 5.56%
[41]
  viability at 10 µM: 63.3%

## COc1ccc2[nH]cc(CCNC(=O)Oc3cccc([C@H](C)N(C)C)c3)c2c1
[2]
  Activity: 19.8%
[3]
  IC50: 21.4 nM
[4]
  IC50: 3.15 nM
